Test results reported in patent US20040116297A1, “Use of polyprenol and its derivatives for facilitating growth of plants” (priority 2001, published 2004).

What was measured:
[1] = test system: cabbage; details: cited from earlier work
[2] = test system: radish; details: cited from earlier work
[3] = test system: rice; details: depending on the plant breeding; cited from earlier work
[4] = test system: red pepper; test: Effect on growth of red pepper; format: in vivo; details: 100 ppm
Experimental: [Worded in the source for another target; used here, by the source, with some conditions changed.] (§1) Then, the treated seeds were dried for 24 hrs at 25° C. Round pots of 25 cm in diameter (7 L capacity) were filled with soil for horticulture, and 50 pots (2 seeds per pot) were sown. After 60 days at about 25° C., the crop growth was evaluated by rate of emergence and early plant height. […] As a control, bean seeds which were not immersed in the polyprenol preparation were used.

[5] = test system: bean; test: Effect on growth of bean; format: in vivo
Experimental: (§2) 100 g of bean seeds were immersed in a 100 ml solution containing the polyprenol preparation formulated in Example 3 at a concentration of 100 ppm, for 1 hr. Then, the treated seeds were dried for 24 hrs at 25° C. Round pots of 25 cm in diameter (7 L capacity) were filled with soil for horticulture, and 50 pots (2 seeds per pot) were sown. After 60 days at about 25° C., the crop growth was evaluated by rate of emergence and early plant height. The test was repeated 3 times, and the average values are represented in Table 7. As a control, bean seeds which were not immersed in the polyprenol preparation were used.
In example 4, the compound having chloride group instead of hydroxyl group can be synthesized. The compound was evaluated on effect on crop growth. 100 g of bean seeds were immersed in a 100 ml solution containing the polyprenol preparation formulated in Example 4 at a concentration of 100 ppm, for 1 hr. Then, the treated seeds were dried for 24 hrs. Round pots of 25 cm in diameter (7 L capacity) were filled with soil for horticulture, and 50 pots (2 seeds per pot) were sown. After 60 days, the crop growth was evaluated. The test was repeated 3 times, and the average values are represented in Table 14. As a control, bean seeds which were not immersed in the polyprenol preparation were used.
as §2, with “Example 5” for “Example 3”, “24 hrs.” for “24 hrs at 25° C.”, “60 days,” for “60 days at about 25° C.,”, “was evaluated.” for “was evaluated by rate of emergence and early plant height.”, “Table 16.” for “Table 7.”

[6] = test system: corn; test: Effect on growth of corn; format: in vivo; details: for Early plant height / Fresh weight / Tiller number: corn seeds immersed 2 hrs at 100 ppm, after 60 days; for Rate of increase of early plant height / Rate of increase of fresh weight / Rate of increase of tiller number: corn, 100 ppm, vs control
Experimental: [Worded in the source for another target; used here, by the source, with some conditions changed.] as §1

[7] = foliage treatment after growing for 20 days
[8] = bean seeds immersed 1 hr at 100 ppm, after 60 days

Compound	Early plant height [6] [cm]	Fresh weight [6] [g]	Tiller number [6]	Rate of increase of early plant height [6] [%]	Rate of increase of fresh weight [6] [%]	Rate of increase of tiller number [6] [%]	further results
CCCCCCCCCCCCCCCCCCCCCCCCCCCCCCO [tricontanol]							Increase of yield [1]: 83%; Increase of yield [2]: 108.4%; Increase of yield [3]: 14.8-41%
Polyprenol of Formula I, in which m is 18 [Example 4]							Early plant length [4, 7]: 70.5 cm; Flower number [4, 7]: 8.4; Trunk diameter [4, 7]: 8.5 mm; Rate of increase of early plant length ([4]; vs control): 11.7%; Rate of increase of flower number ([4]; vs control): 10.5%; Rate of increase of trunk diameter ([4]; vs control): 1.2%; Early plant height [5, 8]: 68.2 cm; No. of pods [5, 8]: 35.4; Rate of emergence [5, 8]: 55.7%; Increase of all factors tested (early plant height, rate of emergence, pod number) ([5]; bean, 100 ppm, summary statement): more than 7%; Rate of increase of No. of pods ([5]; bean, 100 ppm, vs control): 17.2%; Rate of increase of early plant height ([5]; bean, 100 ppm, vs control): 7.74%; Rate of increase of rate of emergence ([5]; bean, 100 ppm, vs control): 7.32%
Polyprenyl Methyl Ether [Example 6-4]	110.1	60.3	8.7	1.3	15.9	6.0	
Polyprenyl Methyl Sulfide [Example 6-5]	108.9	65.7	8.5	0.2	26.3	3.6	
Polyprenyl Stearate [Example 6-3]	109.1	68.0	8.6	0.4	30.7	4.8	
polyprenyl ethyl carbonate [Example 6-6]	109.6	61.3	8.4	0.9	17.8	2.4	
polyprepyl dimethyl sulfonium bromide [Example 6-7]	109.5	70.1	9.2	0.8	34.8	12.1	
